Assay results published in ChEMBL document CHEMBL1158298, “Syringin 4-O-beta-glucoside, a new phenylpropanoid glycoside, and costunolide, a nitric oxide synthase inhibitor, from the stem bark of Magnolia sieboldii” (J Nat Prod, 1996).

Columns and labels:
Type in all cases: cell-based
J774.1 [1] = assay: Inhibition of nitric oxides synthase in mouse J774.1 cells assessed as inhibition of LPS-induced NO release at 100 ug/mL after 48 hrs by Griess assay relative to control
[2] = Cytotoxicity against mouse J774.1 cells assessed as cell viability after 48 hrs by MTT assay; conditions: read-out: Activity
J774.1 [3] = assay: Inhibition of nitric oxides synthase in mouse J774.1 cells assessed as inhibition of LPS-induced NO release at 1 ug/mL after 48 hrs by Griess assay relative to control

Row | SMILES | inhibition (J774.1 [1]) [%] | viability at 48 h [2] [%] | inhibition (J774.1 [3]) [%]
1 | COc1cc(/C=C/CO)cc(OC)c1O[C@@H]1O[C@H](CO)[C@@H](O)[C@H](O)[C@H]1O | 12.3 | – | –
2 | COc1cc(/C=C/CO)cc(OC)c1O[C@@H]1O[C@H](CO)[C@@H](O[C@@H]2O[C@H](CO)[C@@H](O)[C@H](O)[C@H]2O)[C@H](O)[C@H]1O | 22.3 | – | –
3 | C[C@H]1O[C@H](O[C@@H]2[C@@H](O)[C@H](OCCc3ccc(O)c(O)c3)O[C@H](CO[C@H]3O[C@@H](CO)[C@H](O)[C@@H](O)[C@@H]3O)[C@H]2OC(=O)/C=C/c2ccc(O)c(O)c2)[C@@H](O)[C@@H](O)[C@@H]1O | 10.4 | – | –
4 | C=C1C(=O)O[C@@H]2/C=C(\C)CC/C=C(\C)CC[C@@H]12 [COSTUNOLIDE] | 94.6 | 92 | 50.3
